Values quoted from earlier work as cited in patent publication US5221745A, “Psychotropic piperidinylmethyl benzodioxans” (American Home Products Corp., priority 1992, dated 1993).

How the values were obtained:
[1] = tested on: 5-HT1A receptor; conditions: Fozard et al. 1987
[2] = target: T1, serotonin 5-HT1A receptor (Rattus norvegicus, UniProt P19327); conditions: standard for anxiolytic activity
T1 construct: following the procedure of Hall et al., J. Neurochem; 44, 1685 (1985); from tissue
T1 sequence (P19327 1-422): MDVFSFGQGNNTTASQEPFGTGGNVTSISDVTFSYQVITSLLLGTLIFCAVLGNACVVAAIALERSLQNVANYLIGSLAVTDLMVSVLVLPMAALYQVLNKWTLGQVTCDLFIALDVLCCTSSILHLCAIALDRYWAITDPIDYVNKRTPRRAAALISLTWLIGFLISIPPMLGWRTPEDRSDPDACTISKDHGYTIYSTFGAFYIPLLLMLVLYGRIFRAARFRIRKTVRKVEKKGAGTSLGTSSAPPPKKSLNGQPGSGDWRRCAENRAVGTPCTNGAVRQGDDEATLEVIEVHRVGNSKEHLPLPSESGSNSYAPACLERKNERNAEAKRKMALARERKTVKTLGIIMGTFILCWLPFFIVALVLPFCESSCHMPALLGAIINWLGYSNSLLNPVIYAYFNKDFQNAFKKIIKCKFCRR

Structure (SMILES) | ligand character for 5-HT1A receptors (in words) [1] | affinity for the 5-HT1A serotonin receptor subtype (in words) [2]
O=C1CC2(CCCC2)CC(=O)N1CCCCNCC1COc2ccccc2O1 (centres unmarked) [MDL 72832, 8-[4-(1,4-benzodioxan-2-ylmethylamino)butyl]-8-azaspiro[4.5]decane-7,9-dione] | selective and stereospecific | –
O=C1CC2(CCCC2)CC(=O)N1CCCCN1CCN(c2ncccn2)CC1 [buspirone] | – | potent affinity
